In US8618163B2, “Derivatives of cycloalkyl- and cycloalkenyl-1,2-dicarboxylic acid compounds having formyl peptide receptor like-1 (FPRL-1) agonist or antagonist activity” (Allergan, Inc., priority 2010, dated 2013):
Like-named read-outs stand apart in the source and are kept apart here.

Tests used:
FPRL1 = target: T1, FPRL1 (Homo sapiens, UniProt P25090); test: compound-induced calcium activity on FLIPR Tetra in CHO-Gal6 cells stably expressing FPRL1; type: cell-based; conditions: for FPRL1 (rel. eff.): relative efficacy
T1 construct: expressed in transfected cells; host or cells: CHO-Gal6 (CHO cells with G alpha 16)
T1 sequence (P25090 1-351): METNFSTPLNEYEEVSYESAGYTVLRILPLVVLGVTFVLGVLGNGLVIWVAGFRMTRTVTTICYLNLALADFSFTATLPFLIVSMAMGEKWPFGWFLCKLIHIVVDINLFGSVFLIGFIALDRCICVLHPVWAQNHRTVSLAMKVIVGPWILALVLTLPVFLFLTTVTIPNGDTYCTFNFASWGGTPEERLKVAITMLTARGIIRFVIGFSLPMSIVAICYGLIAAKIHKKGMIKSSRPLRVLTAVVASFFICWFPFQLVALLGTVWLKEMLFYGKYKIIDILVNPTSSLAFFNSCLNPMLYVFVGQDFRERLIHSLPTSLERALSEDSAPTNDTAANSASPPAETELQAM
Method in brief: (§1)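 FPRL1 tested in CHO-Gal6 cells and FPR1 in HEK-Gqi5 cells, both stably expressing receptor and plated the day before. Compound-induced calcium response measured on FLIPR Tetra at 0.61 to 10,000 nM. EC50 (nM) and efficacy reported.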

FPR1 = target: T2, FPR1 (Homo sapiens, UniProt P21462); test: compound-induced calcium activity on FLIPR Tetra in HEK-Gqi5 cells stable expressing FPR1; type: cell-based; set-up: FPR1 (rel. eff.): scale not given here
T2 construct: expressed in transfected cells; host or cells: HEK-Gqi5 (HEK cells with chimeric G protein Gqi5)
T2 sequence (P21462 1-350): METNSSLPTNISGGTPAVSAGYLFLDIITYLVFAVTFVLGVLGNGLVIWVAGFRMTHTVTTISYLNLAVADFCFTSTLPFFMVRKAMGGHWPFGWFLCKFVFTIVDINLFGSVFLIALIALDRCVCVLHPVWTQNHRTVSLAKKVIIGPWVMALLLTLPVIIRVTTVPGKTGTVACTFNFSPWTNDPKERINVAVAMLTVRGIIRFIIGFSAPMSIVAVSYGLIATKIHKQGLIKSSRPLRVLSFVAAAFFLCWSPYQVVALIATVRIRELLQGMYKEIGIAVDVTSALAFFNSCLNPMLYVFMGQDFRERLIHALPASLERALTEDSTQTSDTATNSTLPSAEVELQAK
Method in brief: as §1

[1] = calcium, FLIPR Tetra, tested 0.61 to 10,000 nM, read-out: FPRL1 EC50
[2] = class symbol NA, read-out: FPR1 EC50 (NA = Not Active)
[3] = class symbol NA, read-out: FPRL1 EC50 (NA = Not Active)

Row | EC50 (FPRL1; [1]) | FPRL1 (rel. eff.) (FPRL1; calcium, FLIPR Tetra) | EC50 (FPR1; [2]) | EC50 (FPRL1; [3]) | EC50 (FPR1; calcium, FLIPR Tetra, tested 0.61 to 10,000 nM, read-out: FPR1 EC50) | FPR1 (rel. eff.) (FPR1; relative efficacy, calcium, FLIPR Tetra) | Compound
1 | 2.12 µM | 0.67 | > 10 µM |  |  |  | Cc1cc(Br)cc(C)c1NC(=O)[C@@H]1[C@H](C(=O)O)[C@@H]2CC[C@H]1C21CC1 (racemic) [Compound 73, (+/−)-(1R,2S,3R,4S)-2-((4-Bromo-2,6-dimethylphenyl)carbamoyl)spiro[bicyclo[2.2.1]-heptane-7,1′-cyclopropane]-3-carboxylic Acid]
2 |  |  | > 10 µM | > 10 µM |  |  | CC(=O)Nc1ccc(NC(=O)[C@H]2[C@@H](C(=O)O)[C@H]3CC[C@@H]2C32CC2)cc1 (racemic) [Compound 75, (+/−)-(1S,2R,3S,4R)-2-((4-Acetamidophenyl)carbamoyl)spiro[bicyclo[2.2.1]-heptan-7,1′-cyclopropane]-3-carboxylic Acid]
3 | 0.0125 µM | 0.95 | > 10 µM |  |  |  | CCNC(=O)[C@@H]1[C@H](C(=O)Nc2ccc(Br)cc2)[C@@H]2CC[C@H]1C21CC1 (racemic) [Compound 78, (+/−)-(1S,2R,3S,4R)—N^2-(4-Bromophenyl)-N^3-ethylspiro[bicyclo[2.2.1]heptane-7,1′-cyclopropane]-2,3-dicarboxamide]
4 | 0.0088 µM | 0.86 | > 10 µM |  |  |  | O=C(NCCO)[C@@H]1[C@H](C(=O)Nc2ccc(Br)cc2)[C@@H]2CC[C@H]1C21CC1 (racemic) [Compound 82, (+/−)-(1S,2R,3S,4R)—N^2-(4-Bromophenyl)-N^3-[2-hydroxyethyl]spiro[bicyclo[2.2.1]heptane-7,1′-cyclopropane]-2,3-dicarboxamide]
5 | 0.41 µM | 0.94 | > 10 µM |  |  |  | CN(C(=O)[C@H]1[C@@H](C(=O)O)[C@H]2CC[C@@H]1C21CC1)c1ccc(Br)cc1 (racemic) [Compound 88, (+/−)-(1S,2R,3S,4R)-2-((4-Bromophenyl)(methyl)carbamoyl)spiro[bicyclo[2.2.1]heptane-7,1′-cyclopropane]-3-carboxylate]
6 | 2.83 µM | 0.49 | > 10 µM |  |  |  | O=C(Nc1ccccc1)[C@H]1[C@@H](C=NO)[C@H]2CC[C@@H]1C21CC1 (racemic) [Compound 94, (+/−)-(1S,2R,3S,4R)-3-((Hydroxyimino)methyl)-N-phenylspiro[bicyclo[2.2.1]heptane-7,1′-cyclopropane]-2-carboxamide]
7 | < 0.001 µM | 0.98 |  |  | 2.17 µM | 0.76 | O=C(O)C1C(C(=O)Nc2ccc(Br)cc2)C2CCC1C21CC1 (single isomer, unassigned) [Compound 10B]
8 | 0.598 µM | 0.86 | > 10 µM |  |  |  | CS(=O)(=O)c1ccc(NC(=O)[C@H]2[C@@H](C(=O)O)[C@H]3CC[C@@H]2C32CC2)cc1 [Compound 45, (1R,2S,3R,4S)-3-((4-(Methylsulfonyl)phenyl)carbamoyl)spiro[bicyclo[2.2.1]heptane-7,1′-cyclopropane]-2-carboxylic Acid]
9 | 0.0559 µM | 0.97 | > 10 µM |  |  |  | (+/−)-(1S,2R,3S,4R)—N^2-(4-Bromophenyl)-N^3-methoxyspiro[bicyclo[2.2.1]heptane-7,1′-cyclopropane]-2,3-dicarboxamide [Compound 80]

The remaining lines, values behind:

Row | Compound | EC50 (FPRL1; [1]) | FPRL1 (rel. eff.) (FPRL1; calcium, FLIPR Tetra) | EC50 (FPR1; [2]) | EC50 (FPRL1; [3]) | EC50 (FPR1; calcium, FLIPR Tetra, tested 0.61 to 10,000 nM, read-out: FPR1 EC50) | FPR1 (rel. eff.) (FPR1; relative efficacy, calcium, FLIPR Tetra)
10 | NC(=O)c1ccc(NC(=O)C2C(C(=O)O)C3CCC2C32CC2)cc1 (racemic) [Compound 74, (+/−)-(1S,2R,3S,4R)-2-((4-Carbomoylphenyl)carbamoyl)spiro[bicyclo[2.2.1]-heptan-7,1′-cyclopropane]-3-carboxylic Acid] | 2.77 µM | 0.67 | > 10 µM |  |  | 
11 | CNC(=O)[C@@H]1[C@H](C(=O)Nc2ccc(Br)cc2)[C@@H]2CC[C@H]1C21CC1 (racemic) [Compound 77, (+/−)-(1S,2R,3S,4R)—N^2-(4-Bromophenyl)-N^3-methylspiro[bicyclo[2.2.1]heptane-7,1′-cyclopropane]-2,3-dicarboxamide] | 0.0097 µM | 0.95 | > 10 µM |  |  | 
12 | CC(C)NC(=O)[C@@H]1[C@H](C(=O)Nc2ccc(Br)cc2)[C@@H]2CC[C@H]1C21CC1 (racemic) [Compound 79, (+/−)-(1S,2R,3S,4R)—N^2-(4-Bromophenyl)-N^3-isopropylspiro[bicyclo[2.2.1]heptane-7,1′-cyclopropane]-2,3-dicarboxamide] | 0.0066 µM | 1.0 | > 10 µM |  |  | 
13 | O=C(OCc1ccccc1)[C@@H]1[C@H](C(=O)Nc2ccc(Br)cc2)[C@@H]2CC[C@H]1C21CC1 (racemic) [Compound 85, (+/−)-(1S,2R,3S,4R)-Benzyl 2-((4-bromophenyl)carbamoyl)spiro[bicyclo[2.2.1]heptane-7,1′-cyclopropane]-3-carboxylate] | 2.14 µM | 0.88 | > 10 µM |  |  | 
14 | CC(C)OC(=O)[C@@H]1[C@H](C(=O)Nc2ccc(Br)cc2)[C@@H]2CC[C@H]1C21CC1 (racemic) [Compound 86, (+/−)-(1S,2R,3S,4R)-Isopropyl 2-((4-bromophenyl)carbamoyl)spiro[bicyclo[2.2.1]heptane-7,1′-cyclopropane]-3-carboxylate] | 2.11 µM | 1.0 | > 10 µM |  |  | 
15 | O=C(O)[C@@H]1[C@H](C(=O)NNc2ccc(Br)cc2)[C@@H]2CC[C@H]1C21CC1 (racemic) [Compound 87, (+/−)-(1S,2R,3S,4R)-2-(2-(4-Bromophenyl)hydrazinecarbonyl)spiro[bicyclo[2.2.1]heptane-7,1′-cyclopropane]-3-carboxylic Acid] | 0.456 µM | 0.89 | > 10 µM |  |  | 
16 | N#C[C@@H]1[C@H](C(=O)Nc2ccc(Br)cc2)[C@@H]2CC[C@H]1C21CC1 (racemic) [Compound 89, (+/−)-(1S,2R,3S,4R)—N-(4-Bromophenyl)-3-cyanospiro[bicyclo[2.2.1]heptane-7,1′-cyclopropane]-2-carboxamide] | 1.09 µM | 0.82 | > 10 µM |  |  | 
17 | O=C1C2C(C(O)N1c1ccc(Br)cc1)C1CCC2C12CC2 (racemic) [Compound 91, (+/−)-(3aR,4S,7R,7aS)-2-(4-Bromophenyl)-1-hydroxyhexahydro-1H-spiro[4,7-methanoisoindole-8,1′-cyclopropane]-3(2H)-one] |  |  | > 10 µM | > 10 µM |  | 
18 | O=C(Nc1ccc(Br)cc1)[C@H]1[C@@H](C=NO)[C@H]2CC[C@@H]1C21CC1 (racemic) [Compound 92, (+/−)-(1S,2R,3S,4R)—N-(4-Bromophenyl)-3-((hydroxyimino)methyl)spiro[bicyclo[2.2.1]heptane-7,1′-cyclopropane]-2-carboxamide] | 4.38 µM | 0.5 | > 10 µM |  |  | 
19 | N=C[C@@H]1[C@H](C(=O)Nc2ccccc2)[C@@H]2CC[C@H]1C21CC1 (racemic) [Compound 93, (+/−)-(1S,2R,3S,4R)-3-(Iminomethyl)-N-phenylspiro[bicyclo[2.2.1]heptane-7,1′-cyclopropane]-2-carboxamide] | 5.81 µM | 0.58 | > 10 µM |  |  | 
20 | O=C(O)C1=C(C(=O)Nc2ccc(Br)cc2)C2CCC1CC2 [Compound 60, (1s,4s)-3-((4-Bromophenyl)carbamoyl)bicyclo[2.2.2]oct-2-ene-2-carboxylic Acid] | 0.143 µM | 1.0 | > 10 µM |  |  | 
